Results published in patent US6699859B1 (dated 2004).

melting point [°C] | Compound
221.9 to 222.8 | Cn1cnc(COc2nn3c(-c4cccs4)nnc3c(Cl)c2N2CCOCC2)n1
174.5 to 176 | Cn1ncnc1COc1nn2c(-c3ccccc3)nnc2c(Cl)c1N1CCCC1
